Entries after “also recorded” stand apart in the source; their conditions may differ. [5mC] = 5-methylcytosine
What was measured:
[1] = target: DNA cytosine-5 methyltransferase (DCMTase, Dnmt1) (Mus musculus) (UniProt P13864); assay: inhibition
DCMTase [2] = target: T1, DCMTase (Mus musculus, UniProt P13864); settings: previous kinetic study (Flynn et al., 1996); cited from earlier work
T1 construct: DCMTase was purified from mouse erythroleukemia cells as previously described; endogenous in cells; host or cells: mouse erythroleukemia (MEL) cells; enzyme purified from them
T1 sequence (P13864 whole entry): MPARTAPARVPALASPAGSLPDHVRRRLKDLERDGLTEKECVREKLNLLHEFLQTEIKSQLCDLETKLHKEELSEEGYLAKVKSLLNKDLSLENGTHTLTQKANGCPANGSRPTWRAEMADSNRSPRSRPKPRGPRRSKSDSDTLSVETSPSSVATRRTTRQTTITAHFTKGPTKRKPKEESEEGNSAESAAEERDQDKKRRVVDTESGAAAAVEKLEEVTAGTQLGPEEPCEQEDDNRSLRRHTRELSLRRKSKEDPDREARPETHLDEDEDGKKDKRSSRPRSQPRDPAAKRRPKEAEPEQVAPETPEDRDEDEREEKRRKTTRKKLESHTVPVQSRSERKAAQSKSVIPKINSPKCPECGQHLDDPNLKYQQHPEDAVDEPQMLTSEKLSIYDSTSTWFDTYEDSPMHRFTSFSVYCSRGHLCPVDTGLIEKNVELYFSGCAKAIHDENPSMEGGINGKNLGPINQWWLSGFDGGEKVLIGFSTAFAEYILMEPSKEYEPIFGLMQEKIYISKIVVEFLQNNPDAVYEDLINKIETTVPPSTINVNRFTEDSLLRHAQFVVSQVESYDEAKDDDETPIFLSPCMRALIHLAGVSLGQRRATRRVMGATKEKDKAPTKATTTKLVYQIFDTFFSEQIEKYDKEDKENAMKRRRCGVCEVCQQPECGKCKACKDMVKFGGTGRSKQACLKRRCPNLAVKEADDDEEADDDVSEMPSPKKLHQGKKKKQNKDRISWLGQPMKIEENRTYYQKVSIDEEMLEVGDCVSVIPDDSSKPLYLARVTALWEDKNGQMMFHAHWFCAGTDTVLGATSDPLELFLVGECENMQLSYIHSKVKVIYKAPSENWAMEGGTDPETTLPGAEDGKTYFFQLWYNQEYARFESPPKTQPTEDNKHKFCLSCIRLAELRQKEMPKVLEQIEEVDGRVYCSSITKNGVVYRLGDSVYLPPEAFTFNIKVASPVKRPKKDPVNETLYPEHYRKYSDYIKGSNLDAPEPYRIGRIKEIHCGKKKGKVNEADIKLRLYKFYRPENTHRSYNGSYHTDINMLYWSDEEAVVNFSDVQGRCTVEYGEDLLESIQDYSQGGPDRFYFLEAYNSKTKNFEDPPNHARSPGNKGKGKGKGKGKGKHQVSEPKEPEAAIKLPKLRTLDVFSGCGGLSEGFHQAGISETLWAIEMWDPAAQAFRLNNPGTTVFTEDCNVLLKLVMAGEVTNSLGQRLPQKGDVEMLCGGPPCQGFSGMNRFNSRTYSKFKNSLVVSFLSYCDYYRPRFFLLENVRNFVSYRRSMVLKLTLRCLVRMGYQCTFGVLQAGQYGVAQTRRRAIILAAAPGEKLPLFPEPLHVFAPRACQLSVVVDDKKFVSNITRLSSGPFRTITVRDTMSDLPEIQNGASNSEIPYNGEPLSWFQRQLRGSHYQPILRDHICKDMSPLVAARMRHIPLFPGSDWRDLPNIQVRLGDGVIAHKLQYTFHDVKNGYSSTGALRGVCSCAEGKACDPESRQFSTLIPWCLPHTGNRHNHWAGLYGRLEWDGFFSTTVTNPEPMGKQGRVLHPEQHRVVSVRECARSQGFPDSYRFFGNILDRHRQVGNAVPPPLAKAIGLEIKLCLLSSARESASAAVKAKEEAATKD

[3] = target: DNA cytosine-5 methyltransferase (DCMTase, Dnmt1) (Mus musculus) (UniProt P13864); assay: EMSA; settings: pooled generation-5 sequences vs starting pool
DCMTase [4] = target: T1, DCMTase; assay: Dead-end inhibition of poly(dI.dC:dI.dC) methylation by single-stranded DNA; format: biochemical
Method: (§1) After preincubation at room temperature for up to 10 minutes, reactions were initiated by the addition of poly(dI.dC:dI.dC) and, if indicated, inhibitor DNA or reaction products. […] Single-stranded DNA was heated to 90° C. and quick cooled on ice, prior to initiation of the reaction. Freeze-thawed DNA produced equivalent results. Incubations were at 37° C. for 60 minutes. The poly(dI.dC:dI.dC) concentrations were 2.0, 4.0, 8.0, 16, 35, 80, 160, 250, 400, 700 and 1000 pM. In some experiments, GC-box a/b was the substrate, using 100 nM DCMTase and DNA concentrations of 0.20, 0.40, 1.0, 2.0, 4.0, 8.0, 15, 23 and 35 μM. The reaction was stopped after 60 minutes by transferring 20 μL of the reaction onto a DE 81 filter paper that was processed as described (Flynn et al., 1996). The radioactivity above the background, determined from assays without added poly(dI.dC:dI.dC), was converted to initial velocities and expressed as picomoles of methyl groups transferred to poly(dI.dC:dI.dC) per hour and plotted in double reciprocal form.
The poly(dI.dC:dI.dC) concentrations were 10, 13, 20, 40 and 100 pM. The GC-box b concentrations were: diamonds, 0; circles, 0.75 μM; triangles, 1.5 μM; squares, 5.0 μM. Incubations were at 37° C. for 60 minutes.
The poly(dI.dC:dI.dC) concentrations were 1.5, 3.0, 7.5, 15 and 20 pM. The GC-box b^MET concentrations were: squares, 0; circles, 10 nM; diamonds. 20 nM; triangles, 40 nM. Incubations were at 37° C. for 60 minutes.
The GC-box b^MET concentrations were: squares, 0; circles, 20 nM; diamonds, 40 nM; triangles, 80 nM. Incubations were at 37° C. for 60 minutes.
(§2) The Michaelis-Menton equation was used for studies into DNA length contributions to catalysis using KaliedaGraph 2.1.2 (Synergy Software). For mechanistic determinations, the nomenclature used is that of Cleland, W. W., 1963a. Biochimi. Biophysi. Acta 67:104-137. All steady-state data were analyzed using regression analyses of the appropriate initial velocity equation, listed below, using the Cleland programs (Cleland, W. W., 1979, Statistical analysis of enzyme kinetic data. Methods in Enzymol. 63:103-138).
(§3) The algorithms perform a non-linear least squares fit to the entire data set. Mechanistic determinations were made by comparison of the sigma values associated with the fit to each equation. The standard errors associated with fitted parameters and graphical analysis of the experimental data scattered around the calculated best fit lines were also considered in making an assignment.

DCMTase [5] = target: T1, DCMTase; assay: Product inhibition studies, steady-state; format: biochemical; design: key to Type of Inhibition: C: competitive; NC: noncompetitive; UC: uncompetitive inhibition
Method: as §1
The AdoHcy concentrations were: squares, 0; diamonds, 0.75 ,μM; circles, 1.5 μM; triangles, 3.0 μM; notched squares, 6.0 μM. Incubations were at 37° C. for 60 minutes.
For the double reciprocal plot of AdoHcy product inhibition with varying poly(dI.dC:dI.dC) concentrations (FIGS. 17A-C), reactions contained 20 nM DCMTase in 100 mM Tris pH 8.0, 10 mM EDTA, 10 mM DTT, 200 μg/mL BSA. Incubations were at 37° C. for 60 minutes. The poly(dI.dC:dI.dC) concentrations were 2.5, 5.0, 10, and 20 pM. The AdoHcy concentrations were: squares, 0; diamonds, 15 μM; circles, 30 μM.
The poly(dId^mC:dId^mC) concentrations were: squares, 0; diamonds, 5.0 pM; circles, 10 pM; triangles, 20 pM. Incubations were at 37° C. for 60 minutes. Experimental data are shown scattered around lines derived from a fit to equation 5 for noncompetitive inhibition.
200 μg/mL BSA. Incubations were at 37° C. for 60 minutes. The poly(dI.dC:dI.dC) concentrations were 20, 40, 80, 120 and 160 pM. The poly(dId^mC:dId^mC) concentrations were: squares, 0; triangles, 34 pM; circles, 45 pM; diamonds, 68, notched squares, 90 pM. Experimental data are shown scattered around lines. In FIG. 19A, lines are derived from a fit to equation 4 for competitive inhibition. In FIG. 19B, lines are derived from a fit to equation 5 for noncompetitive inhibition. Both fittings are not acceptable.
as §2, §3

[6] = system: mouse erythroleukemia (MEL) cells; assay: Anti-proliferative effects on MEL cells; format: cell-based; settings: for growth rate of MEL cells: incubation with inhibitor, concentration dependent
[7] = target: T2, DNA cytosine-5 methyltransferase (DCMTase, Dnmt1) (Mus musculus, UniProt P13864 P13864:1-1620); assay: EMSA; unit printed as mM (text indicates micromolar); 100 nM enzyme, DNA varied; Hepes pH 7.4, 10 mM EDTA, on ice, no AdoMet; settings: tags: none; purified from mouse erythroleukemia (MEL) cells; label: 32P
T2 sequence (P13864 whole entry, one chain of several): as the sequence (P13864 whole entry) above
Method: (§4) Gel mobility shift assays (GMSA) were performed with minor revisions to the original procedures (Fried, M., & Crothers, D. M., 1981, Equilibria and kinetics of the lac repressor-operator interactions by polyacrylamide gel electrophoresis, Nucleic Acids Res. 9:6505-6525; Garner, M. M. & Revzin, A., 1981, A gel electrophoresis method for quantifying the binding proteins to specific DNA regions: applications to components of the Escherichia coli lactose operon regulatory system, Nucleic Acids Res. 13:3047-3060). […]
(§5) Steady-state kinetic analyses of the DCMTase with the same 30 base-pair DNA substrates used in these studies indicate that Kₘ^DNA is 1000- to 50,000-fold higher (Flynn, J., et al., 1996, Murine DNA cytosine-C5 methyltransferase: Pre-steady- and steady-state kinetic analyses with regulatory DNA sequences, Biochemistry 35:7308-7315) than the DNA concentrations used to generate FIG. 2 and used by Reale et al, 1995, supra. […] Therefore, the stability of protein:DNA was determined by keeping the enzyme at a constant concentration (100 nM) and varying the amount of added DNA (Dubey & Roberts, 1992, supra).

[8] = target: T2, DNA cytosine-5 methyltransferase …; assay: EMSA; unit printed as mM (text indicates micromolar); settings: tags: none, purified from mouse erythroleukemia (MEL) cells
Method: Gel mobility shift assays (GMSA) were performed with minor revisions to the original procedures (Fried, M., & Crothers, D. M., 1981, Equilibria and kinetics of the lac repressor-operator interactions by polyacrylamide gel electrophoresis, Nucleic Acids Res. 9:6505-6525; Garner, M. M. & Revzin, A., 1981, A gel electrophoresis method for quantifying the binding proteins to specific DNA regions: applications to components of the Escherichia coli lactose operon regulatory system, Nucleic Acids Res. 13:3047-3060). All reactions were done in 100 mM Hepes pH 7.4, 10 mM EDTA, 10 mM DTT, […], 5% glycerol using the indicated P-labeled DNA and DCMTase concentrations, incubated on ice for 5 minutes and loaded on a 1×TBE(89 mM Tris-HCl pH 8.3, 89 mM boric acid, 2 mM EDTA), 6% polyacrylamide gel. Electrophoresis was done at 250 V, 9 mA for 2 hours at 4° C. and the dried gel was exposed to film overnight. The reaction conditions for buffer, temperature, incubation time, cofactor addition and gel composition have all been optimized. Only slightly better complex resolution was obtained under the listed conditions compared to a 10 minute incubation at 37° C. prior to gel loading at room temperature and containing either cofactor S-adenosyl-L-methionine, product S-adenosyl-L-homocysteine, or the AdoMet analog sinefungin. Hepes reaction buffer at pH 7.4 produced sharper banding than Tris-HCl at pH 8.0. […] Subsequent assays used a limiting and constant enzyme concentration with varying DNA concentrations.
as §5

[9] = target: T2, DNA cytosine-5 methyltransferase …; assay: EMSA; unit printed as mM (text indicates micromolar); at limit of resolution; settings: tags: none; purified from mouse erythroleukemia (MEL) cells
Method: as §4, §5

Chain of DNA cytosine-5 methyltransferase (DCMTase, Dnmt1) (Mus musculus) (P13864 whole entry): as above

poly(dI.dC:dI.dC), average 6250 or 5000 bp
Ki ([1]; substrate inhibition, 6250 bp, apparent Km 5.5 +/- 0.9 pM, true Km 36 +/- 5 pM): 1 nM

5′-GGGAATTCAAGGGGCGGGGCAAGGATCCAG-3′ (DNA, backbone not given here) [GC-box a]
enzyme activity with single-stranded substrate (DCMTase [2]): no detectable enzyme activity

poly(dI.dmC:dI.dmC), fully methylated
Ki ([1]; 5mC at all M.SssI sites, Kis, noncompetitive product inhibition vs AdoMet, Kii 30 +/- 12 pM): 0.0053 nM

GGGAATTCATGGATCCTAAANNNNNNNNNNNNCGNNNNNNNNNNNNTTTCAAGCTTGTGATTCCC (double strand) [generation-5 selected pool]
binding signal (fold tighter than starting pool) [3]: 2

5′-CTGGATCCTTGCCCCGCCCCTTGAATTCCC-3′ (DNA, backbone not given here) [GC-box b]
enzyme activity with single-stranded substrate (DCMTase [2]): no detectable enzyme activity
Mode of Inhibition (DCMTase [4]): Noncompetitive with poly(dIdC:dIdC)
alpha factor, Kii/Kis (DCMTase [4]): 1.9
Ki (DCMTase [4]; poly(dI.dC:dI.dC) varied, noncompetitive fit, 15 μM AdoMet, read-out: Kii): 6800 nM
Ki (DCMTase [4]; poly(dI.dC:dI.dC) varied, noncompetitive fit, 15 μM AdoMet, read-out: Kis): 3600 nM

Nc1ncnc2c1ncn2[C@@H]1O[C@H](CSCC[C@H](N)C(=O)O)[C@@H](O)[C@H]1O [AdoHcy, S-adenosyl homocysteine]
Ki (DCMTase [5]; varied AdoMet, fixed poly(dIdC:dIdC), competitive, read-out: Inhibition Constant Kis): 1400 nM
Ki (DCMTase [5]; varied poly(dI.dC:dI.dC), low AdoMet concentrations, read-out: Kii, noncompetitive model): 2500 nM
Ki (DCMTase [5]; varied poly(dI.dC:dI.dC), low AdoMet concentrations, read-out: Kii, uncompetitive model): 2000 nM
Ki (DCMTase [5]; varied poly(dI.dC:dI.dC), low AdoMet concentrations, read-out: Kis, noncompetitive model): 63000 nM
Type of Inhibition (DCMTase [5]; varied substrate AdoMet, fixed substrate IC): C
Type of Inhibition (DCMTase [5]; varied substrate IC, fixed substrate AdoMet): NC/UC

GC-box p^MET: SEQ ID NO:10 with a phosphorothioate backbone (DNA CTGGATCCTTGCCCCGCCCCTTGAATTCCC; listed as DNA, chemistry not fully specified)
occurrence of large multi-nucleate cells among regularly sized cells ([6]; five days of incubation, 10 micromolar): about one in fifty
growth rate of MEL cells [6]: slows down the growth rate

5′-CTGGATCCTTGCCC^mCGCCCCTTGAATTCCC-3′ (DNA CTGGATCCTTGCCCCGCCCCTTGAATTCCC; DNA, [5mC] at 15, backbone not given here) [GC-box b^MET]
growth rate of MEL cells [6]: slows down the growth rate
Mode of Inhibition (DCMTase [4]): Uncompetitive with poly(dIdC:dIdC); also recorded: Competitive with Adomet
Ki (DCMTase [4]; AdoMet varied, constant 50 pM poly(dI.dC:dI.dC), competitive fit, read-out: Inhibition Constant, slope derived (Kis), equation 4): 25 nM
Ki (DCMTase [4]; Kii and Kis, read-out: the two inhibition constants in agreement): ~20 nM
lower affinity for free enzyme in the absence of poly(dI.dC:dI.dC) (DCMTase [4]; compared with Example 1 binding): 120 fold
Ki (DCMTase [4]; poly(dI.dC:dI.dC) varied, uncompetitive fit, 10 μM AdoMet, read-out: Inhibition Constant, intercept derived Kii, equation 6): 20 nM
Ki (DCMTase [4]; read-out: KI, dissociation constant from the DCMTase:poly(dI.dC:dI.dC) complex): 2.5 nM
lower inhibition constant (increased inhibition) versus GC-box b (DCMTase [4]; single 5-mC substitution): 200 fold

B1: GC-box a/bMET (dsDNA)
DNA 1: GGGAATTCAAGGGGCGGGGCAAGGATCCAG
DNA 2: CTGGATCCTTGCCCCGCCCCTTGAATTCCC
modifications: 5mC at position 15 of strand b (hemi-methylated CpG)
Kd [7]: 360 nM

B2: CRE aMET/b (dsDNA)
DNA 1: GGGAATTCAAATGACGTCAAAAGGATCCAG
DNA 2: CTGGATCCTTTTGACGTCATTTGAATTCCC
modifications: 5mC at position 15 of strand a (hemi-methylated CpG)
Kd ([8]; label: 32P): 1000 nM

GGGAATTCAAATGACGTCAAAAGGATCCAG (ssDNA) [CRE a]
Kd [9]: > 50000 nM

GGGAATTCAAGGGGCGGGGCAAGGATCCAG (ssDNA) [GC-box a]
Kd [8]: 1200 nM

B3: CRE a/b (dsDNA)
DNA 1: B2 DNA 1
DNA 2: B2 DNA 2
Kd ([8]; label: 32P): 1500 nM

CTGGATCCTTTTGACGTCATTTGAATTCCC (ssDNA) [CRE b]
Kd [9]: > 50000 nM

Reference: patent publication US20030114402A1, “Modulators of DNA cytosine-5 methyltransferase and methods for use thereof” (The Regents of the University of California, priority 1997, published 2003)
